Assay [1] relates to HDAC (Mouse Liver Extract). In words: HDAC inhibition assay using Boc-Lys(Ac)-AMC substrate. The assay is classed as biochemical. To be noted: mouse liver enzyme. As to the method: Inhibition of HDAC has been implicated to modulate transcription and to induce apoptosis or differentiation in cancer cells. The fluorometric assay provides a fast and fluorescence based method that eliminates radioactivity, extractions or chromatography, as used in traditional assays. The assay is based on two steps. First, the HDAC fluorometric substrate, which comprises an acetylated lysine side chain, is incubated with a sample containing HDAC activity (Mouse Liver Extract). Deacetylation of the substrate sensitizes the substrate, in the second step; treatment with the Trypsin stop solution produces a fluorophore that can be easily analyzed using fluorescence plate reader. Assay was done in 96-well black microplate and total volume of the assay was […]. […] The plate was pre-incubated at 37° C. for 5 minutes. […] The plate was incubated at 37° C. for 30 min. The reaction was stopped by adding 100 μL, of Trypsin stop solution and incubating at 37° C. for 15-30 min. Measuring the fluorescence at excitation wavelength of 360 nm and emission wavelength of 460 nm monitored the release of AMC. Buffer alone and substrate alone served as blank. […] (Dennis Wegener et al, Anal. Biochem, 321, 2003, 202-208).

The subject of the next assay is NCIH460 (lung) cells. Kind of assay: Anti-cancer screen (MTT), NCIH460. The assay is classed as cell-based. The note with it: Homo sapiens, NCI-H460, NCIH460, 48 hours, MTT; for GI50: read-out: Cell growth inhibition NCIH460 (Lung) GI50; for LC50: read-out: Cell growth inhibition NCIH460 (Lung) LC50; for IC (TGI): read-out: Cell growth inhibition NCIH460 (Lung) TGI. As to the method:
(§1) Experimental drugs were screened for anti-cancer activity in three cell lines using five concentrations for each compound. The cell lines —HCT 116 (colon), NCIH460 (lung) and U251 (glioma) were maintained in DMEM containing 10% fetal bovine serum. 96-well microtiter plates are inoculated with cells in 100 μL of cell suspension (5×10^4 cells/mL) for 24 hours at 37° C., 5% CO2, 95% air and 100% relative humidity. A separate plate with these cell lines is also inoculated to determine cell viability before the addition of the compounds (T0).
(§2) Following 24-hours incubation, test compounds were added to the 96 well plates. Each plate contains one of the above cell lines and the following samples in triplicate: five different dilutions (0.01, 0.1, 1, 10 and 100 μM) of four test compounds, appropriate dilutions of a cytotoxic standard and growth medium (untreated) wells. Test compounds were dissolved in DMSO to prepare 20 mM stock solutions on the day of drug addition and serial dilutions were carried out in complete growth medium at 2× strength such that 100 μL added to wells gave final concentrations (0.01, 0.1, 1, 10 and 100 μM) in the well. SAHA was used as standard drug in these experiments.
(§3) For T0 measurement, 24 hours after seeding the cells, 20 μL of 3-(4,5-dimethyl-2-thiazolyl)-2,5-diphenyl-2H-tetrazolium (MTT) solution per well was added to the ‘T0’ plate and incubated for 3 hours at 37° C. in a CO2 incubator. The plate containing cells and test compounds was treated similarly after 48 hours of incubation. After 3 hours of MTT addition, well contents were aspirated carefully followed by addition of 150 μL DMSO per well. Plates were agitated to ensure dissolution of the formazan crystals in DMSO and absorbance was read at 570 nm (A570).
(§4) (Mosmann T. Rapid colorimetric assay for cellular growth and survival: application to proliferation and cytotoxicity assays. J Immunol Methods 1983; 65(1-2): 55-63; Anne Monks et al. Feasibility of high-flux anticancer drug screen using a diverse panel of cultured human tumor cell lines”. JNCI, Vol. 83, No. 11, 1991).

The next assay relates to U251 (glioma) cells. In words: Anti-cancer screen (MTT), U251. The assay is classed as cell-based. The note with it: Homo sapiens, U-251, U251, 48 hours, MTT; for GI50: read-out: Cell growth inhibition U251 (Glioma) GI50; for LC50 (concentration giving 50% net cell kill relative to the time-zero cell count): read-out: Cell growth inhibition U251 (Glioma) LC50; for IC (TGI): read-out: Cell growth inhibition U251 (Glioma) TGI. As to the method:
as §1, §2, §3, §4

A further assay deals with HCT 116 (colon) cells. In words: Anti-cancer screen (MTT), HCT 116. It counts as cell-based. The note with it: Homo sapiens, HCT-116, HCT116, 48 hours, MTT; for GI50: read-out: Cell growth inhibition HCT116 (Colon) GI50; for CC50: read-out: Cell growth inhibition HCT116 (Colon) LC50; for IC (TGI): read-out: Cell growth inhibition HCT116 (Colon) TGI. As to the method: as §1, §2, §3, §4

Assay [2] concerns NCIH460, HCT116 and U251 cells. In words: Anti-cancer screen, mean GI50 over cell lines. The assay is classed as cell-based. The note with it: mean over cell lines; read-out: Cell growth inhibition Mean GI50. As to the method:
as §1, §2, §3, §4

Usually GI50 stands for the concentration giving 50% growth inhibition. Broadly, the LC50 is the concentration lethal to half of the exposed cells or organisms. As usually defined, the IC50 is the concentration that inhibits the measured activity by half. The low end stands for inhibition by little substance, the high end for a need for much substance.

The structures appear in SMILES notation.

Regarding `Nc1ccccc1NC(=O)c1ccc(CNC(=O)/C(=C/c2ccc(F)cc2)c2ccccc2)cc1` [Compound 10, N-(2-Aminophenyl)-4-((3-(4-fluorophenyl)-2-(phenyl)acrylamido)methyl)benzamide], in assay [1], the “HDAC inhibition % (1 μM)” value worked out at 14.5% and the “HDAC inhibition % (10 μM)” value was found to be 32.1%. Also, in the assay on NCIH460 (lung) cells, the GI50 was found to be 19.5 µM, the LC50 came out at 85 µM and the IC (TGI) turned out to be 49 µM. Moreover, in the assay on U251 (glioma) cells, the GI50 is 27 µM, the LC50 (concentration giving 50% net cell kill relative to the time-zero cell count) stood at 92 µM and the IC (TGI) is 57 µM. For the same compound, in the assay with HCT 116 (colon) cells, the GI50 is 3.9 µM, the CC50 was found to be 56 µM and the IC (TGI) was determined as 9 µM. The 50% growth inhibitory concentration (GI50) in assay [2] was 16.8 µM.
Take `COC(=O)c1ccc(/C=C(/C(=O)NCc2ccc(C(=O)Nc3ccccc3N)cc2)c2cccs2)cc1` [Compound 36, N-(2-Aminophenyl)-4-((3-(4-carbmethoxyphenyl)-2-(thiophen-2-yl)acrylamido)methyl)benzamide]: in assay [1], the “HDAC inhibition % (1 μM)” value is on record as 30.5% and the “HDAC inhibition % (10 μM)” value is on record as 31.9%. Further, in the assay with NCIH460 (lung) cells, the GI50 is 20 µM, the LC50 was greater than 100 µM and the IC (TGI) was greater than 100 µM. Besides, in the assay with U251 (glioma) cells, the 50% growth inhibitory concentration (GI50) was found to be 18 µM, the LC50 (concentration giving 50% net cell kill relative to the time-zero cell count) came to 90 µM and the IC (TGI) is 50 µM. In the assay on HCT 116 (colon) cells, the GI50 was found to be 0.7 µM, the CC50 was greater than 100 µM and the IC (TGI) was determined as 35 µM. Further, in assay [2], the GI50 amounted to 12.9 µM.
As to `O=C(CCCCCNC(=O)/C(=C/c1ccccc1)c1ccccc1)NO` [Compound 88, 6-(2,3-Diphenylacrylamido)-N-hydroxy hexanamide], in assay [1], the “HDAC inhibition % (1 μM)” value worked out at 81.5% and the “HDAC inhibition % (10 μM)” value is on record as 95.4%. Further, in the assay on NCIH460 (lung) cells, the GI50 is 21 µM, the LC50 was found to be 91 µM and the IC (TGI) was found to be 57.5 µM. For the same compound, in the assay on U251 (glioma) cells, the GI50 amounted to 7.8 µM, the LC50 (concentration giving 50% net cell kill relative to the time-zero cell count) was found to be 78 µM and the IC (TGI) was 37.5 µM. Further, in the assay on HCT 116 (colon) cells, the GI50 worked out at 5 µM, the CC50 is greater than 100 µM and the IC (TGI) turned out to be 22.5 µM. Further, the GI50 in assay [2] came to 11.3 µM.
As to `Nc1ccccc1NC(=O)c1ccc(CNC(=O)/C(=C/c2ccc(F)cc2Cl)c2ccccc2)cc1` [Compound 9, N-(2-Aminophenyl)-4-((3-(2-chloro-4-fluorophenyl)-2-(phenyl)acrylamido)methyl)benzamide], in assay [1], the “HDAC inhibition % (1 μM)” value stood at 12.1% and the “HDAC inhibition % (10 μM)” value worked out at 32.1%. In addition, in the assay with NCIH460 (lung) cells, the GI50 turned out to be 90 µM, the median lethal concentration (LC50) was greater than 100 µM and the IC (TGI) is greater than 100 µM. Also, in the assay with U251 (glioma) cells, the GI50 worked out at 60 µM, the LC50 (concentration giving 50% net cell kill relative to the time-zero cell count) was greater than 100 µM and the IC (TGI) worked out at 79 µM. In the assay with HCT 116 (colon) cells, the GI50 amounted to 58 µM, the CC50 was greater than 100 µM and the IC (TGI) is 94 µM. Moreover, the GI50 in assay [2] was found to be 69.3 µM.
With `CSc1ccc(/C=C(/C(=O)NCc2ccc(C(=O)Nc3ccccc3N)cc2)c2ccc(C)cc2)cc1` [Compound 25, N-(2-Aminophenyl)-4-((3-(4-methylthiophenyl)-2-(4-methylphenyl)acrylamido)methyl)benzamide], in assay [1], the “HDAC inhibition % (1 μM)” value was determined as 63.8% and the “HDAC inhibition % (10 μM)” value is given as 68.1%. In addition, in the assay on NCIH460 (lung) cells, the GI50 was 19 µM, the LC50 was determined as 100 µM and the IC (TGI) is 58 µM. Also, in the assay with U251 (glioma) cells, the concentration for 50% growth inhibition (GI50) was 6.5 µM, the LC50 (concentration giving 50% net cell kill relative to the time-zero cell count) came out at 89 µM and the IC (TGI) is 37 µM. In the assay with HCT 116 (colon) cells, the GI50 turned out to be 7.5 µM, the CC50 turned out to be 90 µM and the IC (TGI) is 48 µM. The GI50 in assay [2] stood at 11 µM.
For `O=C(NCc1ccc(C(=O)NO)cc1)/C(=C/c1ccc(F)cc1)c1ccccc1` [Compound 51, 4-((2-(Phenyl)-3-(4-fluorophenyl)acrylamido)methyl)-N-hydroxybenzamide], in assay [1], the “HDAC inhibition % (1 μM)” value is listed as 74.5% and the “HDAC inhibition % (10 μM)” value was 90.8%. Also, in the assay on NCIH460 (lung) cells, the GI50 is 24 µM, the LC50 was determined as 86 µM and the IC (TGI) was 60 µM. For the same compound, in the assay on U251 (glioma) cells, the GI50 was found to be 6 µM, the LC50 (concentration giving 50% net cell kill relative to the time-zero cell count) was 72 µM and the IC (TGI) turned out to be 48 µM. In the assay on HCT 116 (colon) cells, the GI50 was 7.5 µM, the CC50 was 83 µM and the IC (TGI) is 36 µM. The 50% growth inhibitory concentration (GI50) in assay [2] is 12.5 µM.
Regarding `CSc1ccc(/C=C(/C(=O)NCc2ccc(/C=C/C(=O)NO)cc2)c2ccc(F)cc2)cc1` [Compound 76, (1E)-N-(4-(3-(Hydroxyamino)-3-oxoprop-1-enyl)benzyl)-2-(4-fluorophenyl)-3-(4-methylthiophenyl)acrylamide], in assay [1], the “HDAC inhibition % (1 μM)” value was 42.6%, the “HDAC inhibition % (10 μM)” value was 89.8% and the IC50 was 0.06 µM. For the same compound, in the assay on NCIH460 (lung) cells, the GI50 was 4.2 µM, the LC50 was greater than 100 µM and the IC (TGI) was found to be 42.5 µM. In the assay with HCT 116 (colon) cells, the GI50 amounted to 5 µM, the CC50 was greater than 100 µM and the IC (TGI) is 60 µM. In assay [2], the GI50 is 4.6 µM.
`COc1ccc(/C(=C\c2ccc(SC)cc2)C(=O)NCc2ccc(C(=O)Nc3ccccc3N)cc2)cc1` [Compound 16, N-(2-Aminophenyl)-4-((3-(4-methylthiophenyl)-2-(4-methoxyphenyl)acrylamido)methyl)benzamide]: in assay [1], the “HDAC inhibition % (1 μM)” value came to 30.7% and the “HDAC inhibition % (10 μM)” value is listed as 46.0%. In the assay with NCIH460 (lung) cells, the GI50 amounted to 45 µM, the LC50 is greater than 100 µM and the IC (TGI) turned out to be 97 µM. In the assay with HCT 116 (colon) cells, the GI50 was determined as 40 µM, the CC50 was greater than 100 µM and the IC (TGI) is 82 µM. Besides, the GI50 in assay [2] was 42.5 µM.
As for `COc1cc(/C=C(/C(=O)NCc2ccc(C(=O)Nc3ccccc3N)cc2)c2ccc(F)cc2)cc(OC)c1` [Compound 17, N-(2-Aminophenyl)-4-((3-(3,5-dimethoxyphenyl)-2-(4-fluorophenyl)acrylamido)methyl)benzamide], in assay [1], the “HDAC inhibition % (1 μM)” value amounted to 25.7% and the “HDAC inhibition % (10 μM)” value was found to be 20.3%. Further, in the assay on NCIH460 (lung) cells, the GI50 was found to be 38 µM, the LC50 is greater than 100 µM and the IC (TGI) was 80 µM. Further, in the assay with HCT 116 (colon) cells, the GI50 was determined as 29 µM, the CC50 was greater than 100 µM and the IC (TGI) worked out at 69 µM. Besides, the GI50 in assay [2] was 33.5 µM.

For the origin of these results see US8476255B2, “Histone deacetylase inhibitors” (Orchid Chemicals & Pharmaceuticals Limited, priority 2007, dated 2013).
